The source of these data is US7128910B2, “Moraxella catarrahalis outer membrane protein-106 polypeptide, gene sequences and uses thereof” (priority 1996, dated 2006).

The test system of the assay is M. catarrhalis ATCC 49143. Briefly: Proteolytic digestion of intact cells followed by hemagglutination test. The settings on record: intact cells digested 1 hour at room temperature. It counts as cell-based, Moraxella catarrhalis. On the procedure:
All proteases were obtained from Sigma Chemicals (St. Louis, Mo.). Immediately following the protease treatment, cells were washed once in PBS and resuspended in 1 ml of PBS and the hemagglutinating activity was tested. Additionally, protease-treated bacterial cells were extracted with octyl glucoside so the outer membrane proteins could be resolved to identify specific proteins that may have been digested by the proteases.

For chymotrypsin, the “Effect of protease treatment on hemagglutination activity” value (“Effect of protease treatment” for short) is recorded as “destroyed the hemagglutination activity”. As for “proteinase V8: Protease from Sigma Chemicals”, the “Effect of protease treatment” value is on record as “did not affect hemagglutination activity”.

As to trypsin, the “Effect of protease treatment” value is reported as “partially destroyed hemagglutination activity”.
